# Experimental data published in patent US5554631A, “5-pyrrolyl-6-halogeno-2-pyridylmethylsulfinyl benzimidazole derivatives” (Il-Yang Pharm. Co., Ltd., priority 1994, dated 1996).
# pIC50: −log10 of the molar value.
# What was measured:
# H^+ /K^+ -ATPase = molecular target: T1, H^+ /K^+ -ATPase (Oryctolagus cuniculus, UniProt P27112); test: Inhibition of H+/K+-ATPase enzyme activity in vitro; type: biochemical, rabbit; settings: rabbit gastric microsomal H+/K+-ATPase, 5 min pre-incubation at 37° C., 4 mM ATP; read-out: IC50
# T1 construct: The gastric mucous membrane was removed from rabbit; from tissue; host or cells: rabbit gastric mucosa, microsomal fraction (77,000 xg)
# Description: The gastric mucous membrane was removed from rabbit and then centrifuged with 77,000 xg using a ultracentrifuge to separate the microsomal fraction which was used as the source of H^+ /K^+ -ATPase enzyme for this test. 60 μg of H^+ /K^+ -ATPase was pre-incubated with the sample (the compound according to the present invention) for 5 minutes at 37° C. and then 4 mM ATP as the substrate and 4 mM Mg^++, 20 mM K^+ as the cofactor were added thereto. Then, the amount of inorganic phosphorus thus produced was determined using a spectrophotometer at 660 nm and converted into the amount of protein according to Lowry method. […]
# acidity = test: Inhibition of acidity (total acid output), Shay method; type: in vivo, SD male rats; settings: for Volume (inhibition of acidity) / Inhibition rate, acidity: intraduodenal; for Inhibition rate, acidity: vs normal group
# Description: (§1) The specific test methods are as follows.
# (§2) SD male rats (200±20 g) were fasted for 24 hours, except for water, and then anesthesized with ether. The abdomen of rats was incised and then the pylorus was ligated. The test compounds were suspended or dissolved in […] (carboxymethylcellulose) and injected into duodenum. After the abdomen was suctured, the rats were allowed to stand for 5 hours and then sacrificed with ether. The stomach was removed from rats and the gastric juices were collected. The gastric juice was centrifuged with 10,000×g for 10 minutes at 4° C. to remove the precipitate. The amount of gastric juice and acidity were determined using pH 7.0 end point assay with 0.02N NaOH and then the total acid output was calculated.
# gastric juice secretion = test: Inhibition of gastric juice secretion, Shay method; type: in vivo, SD male rats; settings: for Gastric juice volume / Inhibition rate, gastric juice secretion: intraduodenal; for Inhibition rate, gastric juice secretion: vs normal group
# Description: as §1, §2
# T1 sequence (P27112 2-1035 limits assumed): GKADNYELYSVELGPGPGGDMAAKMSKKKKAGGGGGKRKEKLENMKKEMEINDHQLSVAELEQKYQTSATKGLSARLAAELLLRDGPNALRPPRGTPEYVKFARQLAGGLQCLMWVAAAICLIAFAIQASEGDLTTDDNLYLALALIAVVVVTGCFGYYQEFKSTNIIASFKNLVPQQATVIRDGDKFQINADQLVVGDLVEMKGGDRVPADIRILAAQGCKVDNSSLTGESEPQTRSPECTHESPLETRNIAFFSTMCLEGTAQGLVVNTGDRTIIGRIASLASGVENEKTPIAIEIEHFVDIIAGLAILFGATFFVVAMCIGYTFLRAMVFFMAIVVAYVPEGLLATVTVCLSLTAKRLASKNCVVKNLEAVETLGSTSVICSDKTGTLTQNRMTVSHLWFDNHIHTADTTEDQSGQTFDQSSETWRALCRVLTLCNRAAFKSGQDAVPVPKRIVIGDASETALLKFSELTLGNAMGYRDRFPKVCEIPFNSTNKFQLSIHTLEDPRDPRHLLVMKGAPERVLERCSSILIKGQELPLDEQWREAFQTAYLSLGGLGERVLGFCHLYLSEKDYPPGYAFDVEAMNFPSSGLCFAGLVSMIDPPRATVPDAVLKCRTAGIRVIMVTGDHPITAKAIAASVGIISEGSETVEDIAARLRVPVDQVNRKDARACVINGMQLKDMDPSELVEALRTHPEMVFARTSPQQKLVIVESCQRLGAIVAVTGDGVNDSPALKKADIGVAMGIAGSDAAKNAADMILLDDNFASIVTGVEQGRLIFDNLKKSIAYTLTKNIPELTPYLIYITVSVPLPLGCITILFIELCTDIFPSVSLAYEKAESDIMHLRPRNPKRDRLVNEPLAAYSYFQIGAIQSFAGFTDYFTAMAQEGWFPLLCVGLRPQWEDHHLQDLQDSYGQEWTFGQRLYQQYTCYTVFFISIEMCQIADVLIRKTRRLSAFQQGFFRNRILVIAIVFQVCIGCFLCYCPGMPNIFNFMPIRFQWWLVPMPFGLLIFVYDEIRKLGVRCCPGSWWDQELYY
# T1 sequence (P18597 whole entry partner): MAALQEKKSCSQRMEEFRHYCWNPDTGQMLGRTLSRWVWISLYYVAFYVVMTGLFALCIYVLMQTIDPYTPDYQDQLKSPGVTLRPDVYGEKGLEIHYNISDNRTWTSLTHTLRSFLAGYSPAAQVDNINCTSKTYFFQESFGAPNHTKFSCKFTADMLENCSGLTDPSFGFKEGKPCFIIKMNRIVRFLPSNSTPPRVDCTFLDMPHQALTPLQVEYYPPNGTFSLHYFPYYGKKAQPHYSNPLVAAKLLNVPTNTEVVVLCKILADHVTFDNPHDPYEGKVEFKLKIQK
smiles,measurement,setting,value
Cc1c(OCC(F)(F)C(F)(F)F)ccnc1C[S+]([O-])c1nc2cc(-n3cccc3)c(F)cc2[nH]1 (centres unmarked) [Compound 12],pIC50,H^+ /K^+ -ATPase,3.82
"COc1ccnc(C[S+]([O-])c2nc3cc(-n4c(C)ccc4C)c(F)cc3[nH]2)c1C (centres unmarked) [Compound 16, 2-[[(4-methoxy-3-methyl)-2-pyridinyl]methylsulfinyl]-5-(1H-2,5-dimethylpyrrol-1-yl)-6-fluoro-1H-benzimidazole]",pIC50,H^+ /K^+ -ATPase,4.92
same,Volume (inhibition of acidity),"acidity; 3 mg/kg, rat, 5 h",25.65 ± 6.86 μEq/hr
same,"Inhibition rate, acidity","acidity; 3 mg/kg, rat, 5 h",64.68%
same,Volume (inhibition of acidity),"acidity; 10 mg/kg, rat, 5 h",10.08 ± 3.71 μEq/hr
same,"Inhibition rate, acidity","acidity; 10 mg/kg, rat, 5 h",86.12%
same,Volume (inhibition of acidity),"acidity; 30 mg/kg, rat, 5 h",1.75 ± 1.06 μEq/hr
same,"Inhibition rate, acidity","acidity; 30 mg/kg, rat, 5 h",97.59%
same,ED50,"acidity; Rattus norvegicus, 5 h",1.85 mg/kg
same,Acidity lowering effect (in words),acidity; rat,high acidity lowering effect
same,Gastric juice volume,"gastric juice secretion; 3 mg/kg, rat, 5 h",1.92 ± 0.14 ml/100 g BW
same,"Inhibition rate, gastric juice secretion","gastric juice secretion; 3 mg/kg, rat, 5 h",44.35%
same,Gastric juice volume,"gastric juice secretion; 10 mg/kg, rat, 5 h",1.35 ± 0.15 ml/100 g BW
same,"Inhibition rate, gastric juice secretion","gastric juice secretion; 10 mg/kg, rat, 5 h",60.87%
same,Gastric juice volume,"gastric juice secretion; 30 mg/kg, rat, 5 h",0.98 ± 0.19 ml/100 g BW
same,"Inhibition rate, gastric juice secretion","gastric juice secretion; 30 mg/kg, rat, 5 h",71.59%
same,ED50,"gastric juice secretion; Rattus norvegicus, 5 h",4.53 mg/kg
same,Inhibition of gastric juice secretion (in words),gastric juice secretion; rat,very strong inhibition of gastric juice secretion
COc1c(C)cnc(C[S+]([O-])c2nc3cc(-n4cccc4)c(F)cc3[nH]2)c1C (centres unmarked) [Compound 4],pIC50,H^+ /K^+ -ATPase,3.37
[O-][S+](Cc1ccccn1)c1nc2cc(-n3cccc3)c(F)cc2[nH]1 (centres unmarked) [Compound 9],pIC50,H^+ /K^+ -ATPase,2.33
Cc1cnc(C[S+]([O-])c2nc3cc(-n4c(C)ccc4C)c(F)cc3[nH]2)c(C)c1OCC(F)(F)F (centres unmarked) [Compound 22],pIC50,H^+ /K^+ -ATPase,3.41
COc1ccnc(C[S+]([O-])c2nc3cc(-n4cccc4)c(F)cc3[nH]2)c1 (centres unmarked) [Compound 8],pIC50,H^+ /K^+ -ATPase,2.72
CCOc1ccnc(C[S+]([O-])c2nc3cc(-n4cccc4)c(F)cc3[nH]2)c1C (centres unmarked) [Compound 5],pIC50,H^+ /K^+ -ATPase,> 4.40
same,Volume (inhibition of acidity),"acidity; 10 mg/kg, rat, 5 h",21.85 ± 2.44 μEq/hr
same,"Inhibition rate, acidity","acidity; 10 mg/kg, rat, 5 h",66.78%
same,Volume (inhibition of acidity),"acidity; 30 mg/kg, rat, 5 h",11.84 ± 4.00 μEq/hr
same,"Inhibition rate, acidity","acidity; 30 mg/kg, rat, 5 h",82.00%
same,Gastric juice volume,"gastric juice secretion; 10 mg/kg, rat, 5 h",1.63 ± 0.04 ml/100 g BW
same,"Inhibition rate, gastric juice secretion","gastric juice secretion; 10 mg/kg, rat, 5 h",42.40%
same,Gastric juice volume,"gastric juice secretion; 30 mg/kg, rat, 5 h",1.21 ± 0.10 ml/100 g BW
same,"Inhibition rate, gastric juice secretion","gastric juice secretion; 30 mg/kg, rat, 5 h",57.24%
Cc1cnc(C[S+]([O-])c2nc3cc(-n4cccc4)c(F)cc3[nH]2)c(C)c1OCC(F)(F)C(F)(F)F (centres unmarked) [Compound 11],pIC50,H^+ /K^+ -ATPase,2.03
Cc1c(OCC(F)(F)C(F)(F)F)ccnc1CS(=O)(=O)c1nc2cc(-n3cccc3)c(F)cc2[nH]1 [Compound 14],pIC50,H^+ /K^+ -ATPase,2.28
"CCOCCOc1ccnc(C[S+]([O-])c2nc3cc(-n4cccc4)c(F)cc3[nH]2)c1C (centres unmarked) [Compound 6, 2-[[(4-(2-ethoxyethoxy)-3-methyl)-2-pyridinyl]methylsulfinyl]-5-(1H-pyrrol-1-yl)-6-fluoro-1H-benzimidazole]",pIC50,H^+ /K^+ -ATPase,4.55
COc1cc(C[S+]([O-])c2nc3cc(-n4cccc4)c(F)cc3[nH]2)ncc1C (centres unmarked) [Compound 3],pIC50,H^+ /K^+ -ATPase,2.70
COc1ccnc(C[S+]([O-])c2nc3cc(-n4c(C)ccc4C)c(F)cc3[nH]2)c1 (centres unmarked) [Compound 20],pIC50,H^+ /K^+ -ATPase,3.68
same,Volume (inhibition of acidity),"acidity; 10 mg/kg, rat, 5 h",18.41 ± 2.27 μEq/hr
same,"Inhibition rate, acidity","acidity; 10 mg/kg, rat, 5 h",74.23%
same,Volume (inhibition of acidity),"acidity; 30 mg/kg, rat, 5 h",11.31 ± 1.91 μEq/hr
same,"Inhibition rate, acidity","acidity; 30 mg/kg, rat, 5 h",84.17%
same,Gastric juice volume,"gastric juice secretion; 10 mg/kg, rat, 5 h",1.41 ± 0.16 ml/100 g BW
same,"Inhibition rate, gastric juice secretion","gastric juice secretion; 10 mg/kg, rat, 5 h",53.62%
same,Gastric juice volume,"gastric juice secretion; 30 mg/kg, rat, 5 h",1.06 ± 0.10 ml/100 g BW
same,"Inhibition rate, gastric juice secretion","gastric juice secretion; 30 mg/kg, rat, 5 h",65.13%
